From US20030176314A1, “Compounds for the treatment of pain” (priority 2001, published 2003)

Experiments:
[1] = target: T1, human α1A adrenergic receptor (Homo sapiens, UniProt P35348); experiment: Binding at human α1A adrenergic receptor; conditions: Table 8; read-out: hα1A Ki
T1 construct: host or cells: LM(tk-) cells, line L-α1C
T1 sequence (P35348 1-466): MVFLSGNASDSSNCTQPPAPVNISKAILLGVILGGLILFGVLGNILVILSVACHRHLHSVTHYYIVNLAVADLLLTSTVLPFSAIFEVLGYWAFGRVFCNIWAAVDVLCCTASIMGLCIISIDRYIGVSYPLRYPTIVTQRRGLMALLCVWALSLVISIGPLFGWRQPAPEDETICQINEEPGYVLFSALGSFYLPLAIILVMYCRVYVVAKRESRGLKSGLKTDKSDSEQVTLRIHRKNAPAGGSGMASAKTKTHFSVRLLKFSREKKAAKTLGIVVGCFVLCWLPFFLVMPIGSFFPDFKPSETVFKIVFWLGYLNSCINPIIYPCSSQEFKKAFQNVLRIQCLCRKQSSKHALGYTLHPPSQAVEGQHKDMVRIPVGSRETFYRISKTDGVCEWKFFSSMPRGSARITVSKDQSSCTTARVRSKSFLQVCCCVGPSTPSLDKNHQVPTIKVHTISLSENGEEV
From the text: (§1) α1 Human Adrenergic Receptors: To determine the binding of compounds to human α1 receptors, LM(tk−) cell lines stably transfected with the genes encoding the α1a, α1b, and α1d receptors were used. The nomenclature describing the α1 receptors was changed recently, such that the receptor formerly designated α1a is now designated α1d, and the receptor formerly designated α1c is now designated α1a. The cell lines expressing these receptors were deposited with the ATCC before the nomenclature change and reflect the subtype designations formerly assigned to these receptors. Thus, the cell line expressing the receptor described herein as the α1a receptor was deposited with the ATCC on Sep. […] The cell line expressing receptor described herein as the α1d receptor was deposited with the ATCC on Sep. […] The cell line expressing the α1b receptor is designated L-α1B, and was deposited on Sep.
(§2) The binding affinity (Ki) of these compounds were tested according to the protocols described herein at the following receptors; human α1A, α1B, α1D, α2A, α2B, and α2C adrenergic receptors; human Y1, Y2, Y4, and Y5 receptors; and N-Methyl-D-aspartic acid (NMDA) receptor channels. The binding interactions of these compounds were additionally tested at the norepinephrine (NE) transporter (NE uptake) and serotonin (5-hydroxytryptamine (5HT)) transporter (5HT uptake) according to protocols described herein

[2] = target: T2, human α1B adrenergic receptor (Homo sapiens, UniProt P35368); experiment: Binding at human α1B adrenergic receptor; conditions: Table 8; read-out: hα1B Ki
T2 construct: host or cells: LM(tk-) cells, line L-α1B
T2 sequence (P35368 1-520): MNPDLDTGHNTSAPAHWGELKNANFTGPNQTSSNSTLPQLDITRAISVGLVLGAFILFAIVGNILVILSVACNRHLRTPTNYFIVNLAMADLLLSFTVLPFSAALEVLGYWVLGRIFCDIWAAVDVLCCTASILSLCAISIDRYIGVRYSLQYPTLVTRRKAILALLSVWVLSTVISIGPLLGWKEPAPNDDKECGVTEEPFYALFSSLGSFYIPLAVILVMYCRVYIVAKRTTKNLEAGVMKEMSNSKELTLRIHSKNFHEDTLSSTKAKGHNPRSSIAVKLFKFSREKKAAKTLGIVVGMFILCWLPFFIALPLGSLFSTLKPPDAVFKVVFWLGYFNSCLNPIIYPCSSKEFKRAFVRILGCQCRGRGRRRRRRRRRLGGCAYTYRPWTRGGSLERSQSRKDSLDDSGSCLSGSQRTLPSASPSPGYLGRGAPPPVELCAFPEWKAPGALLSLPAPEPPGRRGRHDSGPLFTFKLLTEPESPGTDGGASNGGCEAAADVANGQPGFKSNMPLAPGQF
From the text: as §1, §2

rat NPFF2 receptor = target: T3, rat NPFF2 receptor (Rattus norvegicus, UniProt Q9EQD2); experiment: Functional assay (agonist potency, intrinsic activity) at cloned rat NPFF2 receptor; type: cell-based; conditions: Table 7, intrinsic activity
T3 construct: The full-length NPFF2 was amplified from rat spinal cord cDNA; expressed in transfected cells; host or cells: not given

[3] = target: T4, human α1D adrenergic receptor (Homo sapiens, UniProt P25100); experiment: Binding at human α1D adrenergic receptor; conditions: Table 8; read-out: hα1D Ki
T4 construct: host or cells: LM(tk-) cells, line L-α1A
T4 sequence (P25100 1-572): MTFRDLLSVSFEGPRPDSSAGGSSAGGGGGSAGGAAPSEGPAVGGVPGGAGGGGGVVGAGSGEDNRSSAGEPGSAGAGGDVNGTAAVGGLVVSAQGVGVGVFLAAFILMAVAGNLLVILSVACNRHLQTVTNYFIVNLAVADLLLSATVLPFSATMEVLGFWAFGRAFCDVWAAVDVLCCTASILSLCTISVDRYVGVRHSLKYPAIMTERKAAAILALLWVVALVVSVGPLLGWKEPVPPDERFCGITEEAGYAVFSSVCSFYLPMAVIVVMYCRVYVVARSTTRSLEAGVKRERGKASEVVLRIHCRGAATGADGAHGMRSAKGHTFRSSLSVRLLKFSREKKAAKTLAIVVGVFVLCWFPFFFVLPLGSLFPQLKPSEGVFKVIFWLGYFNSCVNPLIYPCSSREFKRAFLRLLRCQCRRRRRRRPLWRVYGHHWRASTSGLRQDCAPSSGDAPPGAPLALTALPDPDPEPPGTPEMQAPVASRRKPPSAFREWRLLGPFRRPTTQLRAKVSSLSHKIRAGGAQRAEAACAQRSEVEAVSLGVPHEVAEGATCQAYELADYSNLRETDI
From the text: as §1, §2

human Y5 receptor = target: T5, human Y5 receptor (Homo sapiens, UniProt Q15761); experiment: Binding at human neuropeptide Y Y5 receptor; conditions: Table 8; read-out: hY5 Ki
T5 construct: host or cells: L cells, line L-hY5-7
T5 sequence (Q15761 1-445): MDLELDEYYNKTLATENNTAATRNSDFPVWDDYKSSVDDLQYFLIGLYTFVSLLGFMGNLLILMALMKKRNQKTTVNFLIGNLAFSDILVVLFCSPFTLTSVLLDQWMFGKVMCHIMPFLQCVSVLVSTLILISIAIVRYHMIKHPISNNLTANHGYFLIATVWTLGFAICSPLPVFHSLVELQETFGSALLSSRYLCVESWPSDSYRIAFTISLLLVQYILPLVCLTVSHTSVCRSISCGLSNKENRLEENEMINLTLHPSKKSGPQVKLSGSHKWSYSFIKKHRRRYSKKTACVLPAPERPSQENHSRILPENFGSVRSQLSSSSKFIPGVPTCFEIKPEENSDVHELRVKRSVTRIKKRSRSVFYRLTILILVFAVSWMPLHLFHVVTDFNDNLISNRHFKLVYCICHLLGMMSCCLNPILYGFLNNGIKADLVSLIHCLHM
From the text: (§3) Neuropeptide receptors: Stably transfected cell lines which may be used for binding experiments include, for the Y1 receptor, 293-hY1-5 (deposited Jun. 4, 1996, under ATCC Accession No. CRL-12121); for the Y2 receptor, 293-hY2-10 (deposited Jan. 27, 1994, under ATCC Accession No. CRL-11837); for the Y4 receptor, L-hY4-3 (deposited Jan. 11, 1995, under ATCC Accession No. CRL 11779); and for the Y5 receptor, L-hY5-7 (deposited Nov. 15, 1995, under ATCC Accession No. CRL 11995).
(§4) Binding assays using the NPY receptors may be carried out according to the procedures described in U.S. Pat. No. 5,602,024, the disclosure of which is hereby incorporated by reference in its entirety into this application.
as §2

human Y4 receptor = target: T6, human Y4 receptor (Homo sapiens, UniProt P50391); experiment: Binding at human neuropeptide Y Y4 receptor; conditions: Table 8; read-out: hY4 Ki
T6 construct: host or cells: L cells, line L-hY4-3
From the text: as §3, §4, §2

human Y1 receptor = target: T7, human Y1 receptor (Homo sapiens, UniProt P25929); experiment: Binding at human neuropeptide Y Y1 receptor; conditions: Table 8; read-out: hY1 Ki
T7 construct: host or cells: 293 cells, line 293-hY1-5
T7 sequence (P25929 1-384): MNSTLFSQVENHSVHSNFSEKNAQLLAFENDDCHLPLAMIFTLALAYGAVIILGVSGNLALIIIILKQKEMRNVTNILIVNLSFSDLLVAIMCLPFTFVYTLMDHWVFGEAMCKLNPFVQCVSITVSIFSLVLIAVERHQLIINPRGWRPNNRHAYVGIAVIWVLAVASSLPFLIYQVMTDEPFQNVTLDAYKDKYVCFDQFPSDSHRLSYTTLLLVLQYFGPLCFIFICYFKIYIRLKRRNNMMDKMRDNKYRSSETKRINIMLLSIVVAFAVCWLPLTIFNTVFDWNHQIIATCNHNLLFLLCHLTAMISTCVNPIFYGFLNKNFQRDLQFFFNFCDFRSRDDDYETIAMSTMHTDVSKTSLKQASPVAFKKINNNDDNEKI
From the text: as §3, §4, §2

[4] = target: T8, serotonin (5HT) transporter (Rattus norvegicus, UniProt P31652); experiment: Binding at native serotonin transporter (5HT uptake); conditions: Table 8
T8 construct: evaluated at native, tissue-derived transporters; from tissue
Protocol: (§5) Transporters: The binding properties of compounds were evaluated at native, tissue-derived transporters, namely serotonin (5HT) transporter and norepinephrine (NE) transporter, according to protocols described in Owens (1997), the disclosure of which is hereby incorporated by reference in its entirety into this application.
as §2

human Y2 receptor = target: T9, human Y2 receptor (Homo sapiens, UniProt P49146); experiment: Binding at human neuropeptide Y Y2 receptor; conditions: Table 8; read-out: hY2 Ki
T9 construct: host or cells: 293 cells, line 293-hY2-10
T9 sequence (P49146 1-381): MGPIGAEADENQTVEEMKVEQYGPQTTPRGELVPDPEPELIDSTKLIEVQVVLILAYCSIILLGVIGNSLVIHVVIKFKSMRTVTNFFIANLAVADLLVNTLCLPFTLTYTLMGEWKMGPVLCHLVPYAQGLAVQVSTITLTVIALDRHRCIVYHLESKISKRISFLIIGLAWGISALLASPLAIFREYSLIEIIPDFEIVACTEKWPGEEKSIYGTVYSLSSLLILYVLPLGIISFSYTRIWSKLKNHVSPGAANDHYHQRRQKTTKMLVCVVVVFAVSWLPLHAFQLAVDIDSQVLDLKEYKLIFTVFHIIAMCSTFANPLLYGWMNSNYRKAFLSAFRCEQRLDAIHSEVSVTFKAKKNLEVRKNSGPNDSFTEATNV
From the text: as §3, §4, §2

[5] = target: T10, norepinephrine (NE) transporter (Rattus norvegicus, UniProt Q63380); experiment: Binding at native norepinephrine transporter (NE uptake); conditions: Table 8
T10 construct: evaluated at native, tissue-derived transporters; from tissue
Protocol: as §5, §2

T8 sequence (P31652 whole entry): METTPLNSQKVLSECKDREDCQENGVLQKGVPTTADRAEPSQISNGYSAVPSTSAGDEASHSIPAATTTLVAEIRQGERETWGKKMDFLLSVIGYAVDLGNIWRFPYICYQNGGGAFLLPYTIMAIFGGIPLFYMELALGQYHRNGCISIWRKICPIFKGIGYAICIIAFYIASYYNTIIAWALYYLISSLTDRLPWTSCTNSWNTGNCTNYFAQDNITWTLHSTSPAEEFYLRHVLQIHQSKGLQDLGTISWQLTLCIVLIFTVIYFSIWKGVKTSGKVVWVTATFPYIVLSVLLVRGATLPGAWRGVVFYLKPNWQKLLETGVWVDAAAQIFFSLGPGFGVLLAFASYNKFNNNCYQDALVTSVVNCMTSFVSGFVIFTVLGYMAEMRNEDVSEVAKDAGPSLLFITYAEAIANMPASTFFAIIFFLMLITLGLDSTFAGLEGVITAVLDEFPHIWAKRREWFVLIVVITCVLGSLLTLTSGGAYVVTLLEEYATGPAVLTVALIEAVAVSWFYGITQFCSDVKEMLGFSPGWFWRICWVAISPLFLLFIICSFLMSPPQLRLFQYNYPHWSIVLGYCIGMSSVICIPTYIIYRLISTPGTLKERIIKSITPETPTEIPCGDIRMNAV
T10 sequence (Q63380 1-617): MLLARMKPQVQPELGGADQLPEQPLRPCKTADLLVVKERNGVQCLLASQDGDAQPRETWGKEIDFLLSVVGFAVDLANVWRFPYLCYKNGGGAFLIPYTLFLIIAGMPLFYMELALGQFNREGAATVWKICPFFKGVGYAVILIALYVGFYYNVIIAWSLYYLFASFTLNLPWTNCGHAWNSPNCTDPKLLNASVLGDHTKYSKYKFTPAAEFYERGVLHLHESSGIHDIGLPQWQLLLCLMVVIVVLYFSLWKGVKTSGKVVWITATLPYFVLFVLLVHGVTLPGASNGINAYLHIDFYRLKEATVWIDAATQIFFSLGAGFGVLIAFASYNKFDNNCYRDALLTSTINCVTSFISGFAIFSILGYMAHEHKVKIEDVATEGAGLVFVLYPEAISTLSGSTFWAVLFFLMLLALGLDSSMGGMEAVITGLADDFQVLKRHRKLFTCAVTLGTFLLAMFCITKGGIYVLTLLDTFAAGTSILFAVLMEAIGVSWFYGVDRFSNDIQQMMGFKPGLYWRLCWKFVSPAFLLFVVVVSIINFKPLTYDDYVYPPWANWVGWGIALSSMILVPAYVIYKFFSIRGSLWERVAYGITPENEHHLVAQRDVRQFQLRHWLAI
T6 sequence (P50391 whole entry): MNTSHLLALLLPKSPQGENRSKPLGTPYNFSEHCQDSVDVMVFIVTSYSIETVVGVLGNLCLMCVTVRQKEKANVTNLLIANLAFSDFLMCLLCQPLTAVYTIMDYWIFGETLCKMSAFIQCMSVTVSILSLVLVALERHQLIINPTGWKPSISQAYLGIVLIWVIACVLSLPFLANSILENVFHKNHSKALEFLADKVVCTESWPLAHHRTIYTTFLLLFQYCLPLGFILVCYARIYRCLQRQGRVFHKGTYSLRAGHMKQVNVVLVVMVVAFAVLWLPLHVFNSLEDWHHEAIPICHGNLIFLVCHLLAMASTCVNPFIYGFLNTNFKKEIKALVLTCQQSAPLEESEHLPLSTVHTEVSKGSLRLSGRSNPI
T3 sequence (Q9EQD2 whole entry): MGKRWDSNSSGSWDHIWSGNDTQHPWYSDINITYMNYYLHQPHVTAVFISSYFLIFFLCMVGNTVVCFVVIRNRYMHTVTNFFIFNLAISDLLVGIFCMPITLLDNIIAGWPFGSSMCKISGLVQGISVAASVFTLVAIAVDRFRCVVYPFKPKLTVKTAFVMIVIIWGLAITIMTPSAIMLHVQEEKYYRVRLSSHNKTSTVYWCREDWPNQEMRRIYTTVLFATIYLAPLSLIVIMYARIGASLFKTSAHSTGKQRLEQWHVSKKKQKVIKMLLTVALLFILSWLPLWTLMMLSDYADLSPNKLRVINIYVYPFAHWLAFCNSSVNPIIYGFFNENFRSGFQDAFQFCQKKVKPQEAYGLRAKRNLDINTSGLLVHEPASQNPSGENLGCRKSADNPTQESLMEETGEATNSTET

Row | Ki [1] | Ki [2] | rNPFF2 IA (rat NPFF2 receptor) | Ki [3] | SMILES | Ki (human Y5 receptor) | Ki (human Y4 receptor) | Ki (human Y1 receptor) | Ki [4] | Ki (human Y2 receptor) | Ki [5]
1 | 5.03 µM | 9.86 µM | 16% NPFF | 12.9 µM | Cc1nc(NC(=N)N)nc2ccccc12 [Compound 1001A, N-(4-methyl-2-quinazolinyl)guanidine] | – | – | – | – | – | –
2 | – | – | – | – | Cc1cc(NC(=N)N)nc2ccccc12 [Compound 6001A, N-(4-methyl-2-quinolinyl)guanidine] | 0.742 µM | 14.3 µM | > 50 µM | 10.5 µM | > 50 µM | 12.7 µM
